In paper PMC4977651, “Molecular features of biguanides required for targeting of mitochondrial respiratory complex I and activation of AMP-kinase” (BMC Biology, 2016):
Where “and” joins values, the source holds several entries; their conditions need not be identical. Equal values may be shown once.

What was measured:
[1] = Octanol/PBS partition coefficient, shake-flask method; assay type: physicochemical; conditions: 32 °C, pH 7.4, n = 3
Protocol: Octanol/PBS partition coefficients were measured by the shake-flask method at 32 °C, pH 7.4.

143B cells = assay: Rotenone-sensitive oxygen consumption rate in intact 143B cells; assay type: cell-based, human; conditions: for rotenone sensitive OCR after 6 hours of biguanide exposure, % control, average / rotenone sensitive OCR after 6 hours of biguanide exposure, average: 143B cells, biguanide at IC50/10; for rotenone sensitive OCR after 6 hours of biguanide exposure, average: OCR normalized to OCR immediately prior to biguanide addition; for inhibition of rotenone-sensitive respiration (in words): intact 143B cells, biguanide at IC50/10, monitored for 6 h
Protocol: (§1) 143B (CRL-8303 from ATCC), HepG2 (85011430 from The Health Protection Agency), and MDBK (CCL-22 from ATCC) cells were grown on Dulbecco’s modified Eagle’s medium (DMEM) supplemented with 10 % fetal bovine serum (FBS, Thermo Fisher Scientific) at 37 °C in 5 % CO2. All cells were confirmed as negative for mycoplasma.
(§2) Oxygen consumption rates (OCRs) were measured using a Seahorse XF96 extracellular flux analyzer at 37 °C. For intact cell measurements, 1.4 × 10^4 143B, HepG2, or MDBK cells were plated (per well) in DMEM containing 10 % FBS into Seahorse Bioscience Inc. XF96 plates and incubated for ~12 h at 37 °C in 5 % CO2. Then, the medium was exchanged for assay buffer containing DMEM, 4.5 g L^−1 glucose, 1 mM pyruvate, 32 mM NaCl, 2 mM GlutaMAX, 15 mg L^−1 phenol red, and 20 mM HEPES (pH 7.4 at 37 °C) and the cells placed in a CO2-free incubator at 37 °C for 30 min. Basal oxygen consumption rates were established before the addition of biguanides at one-tenth of their IC50 (IC50/10), and followed for ~ 6 h before the addition of rotenone (2 μM).
(§3) Rotenone-sensitive OCRs were calculated by subtracting the rotenone-insensitive rates (determined at the end of the experiment). OCRs were normalized by dividing by the OCR recorded immediately prior to the addition of biguanide. For rate of uptake calculations, the OCRs at time points after biguanide addition were divided by the OCRs at the same time points in control experiments. Data from wells with failed port injections were excluded from the analyses. The respiratory control ratio (RCR) values (state III versus state IV respiration) were ~11 and ~6 for permeabilized MDBK and 143B cells, respectively.

HepG2 cells = assay: Rotenone-sensitive oxygen consumption rate in intact HepG2 cells; assay type: cell-based, human; conditions: for rotenone sensitive OCR after 6 hours of biguanide exposure, % control, average / rotenone sensitive OCR after 6 hours of biguanide exposure, average: HEPG2 cells, biguanide at IC50/10; for rotenone sensitive OCR after 6 hours of biguanide exposure, average: OCR normalized to OCR immediately prior to biguanide addition; for inhibition of rotenone-sensitive respiration (in words): intact HepG2 cells, biguanide at IC50/10, monitored for 6 h
Protocol: as §1, §2, §3

mouse heart mitochondria = assay: ADP-stimulated rotenone-sensitive OCR in isolated mouse heart mitochondria; assay type: biochemical; parameters: rotenone sensitive OCR after ADP stimulation, individual replicates / rotenone sensitive OCR after ADP stimulation, average / rotenone sensitive OCR after 15 mins, average: unit not given here; conditions: for rotenone sensitive OCR after ADP stimulation, % of control, average / rotenone sensitive OCR after ADP stimulation, average: average of replicates; for rotenone sensitive OCR after ADP stimulation, % of control, individual replicates: replicate 1-11; for rotenone sensitive OCR after ADP stimulation, individual replicates: replicate 1-12
Protocol: (§4) Complex I and mitochondrial membranes were prepared from Bos taurus (bovine) heart. Intact mitochondria were isolated from rat liver and mouse heart and liver. Membranes were prepared from mouse heart mitochondria by 5 s bursts of sonication at 4 °C and collected by centrifugation (75,000 × g, 1 h).
Isolated mitochondria were monitored using a Seahorse XF96 extracellular flux analyzer at 32 °C. Mouse heart mitochondria, and mouse and rat liver mitochondria were plated into XF96 plates at 4 and 16–20 μg per well, respectively, in 220 mM mannitol, 70 mM sucrose, 10 mM KH2PO4, 5 mM MgCl2, 1 mM EGTA, 0.2 % fatty acid-free BSA, and 2 mM HEPES (pH 7.4 at 37 °C) with 10 mM glutamate and 10 mM malate and adhered by centrifugation (2000 × g, 20 min, 4 °C). The medium was supplemented with a further 5 mM glutamate and 5 mM malate and the mitochondria incubated for 15 min. Then two baseline readings were taken before the biguanides were added at IC50/5. […] Rotenone (2 μM) was added at the end of the experiment. Data from wells with failed port injections were excluded from the analyses. The RCR values (state III versus state IV respiration) were 3.4, 4.8, and 4.6 for mouse heart, rat liver, and mouse liver, respectively.

mouse liver mitochondria = assay: ADP-stimulated rotenone-sensitive OCR in isolated mouse liver mitochondria; assay type: biochemical; parameters: rotenone sensitive OCR after ADP stimulation, individual replicates / rotenone sensitive OCR after ADP stimulation, average: unit not given here; conditions: for rotenone sensitive OCR after ADP stimulation, % of control, average / rotenone sensitive OCR after ADP stimulation, average: average of replicates; for rotenone sensitive OCR after ADP stimulation, % of control, individual replicates / rotenone sensitive OCR after ADP stimulation, individual replicates: replicate 1-5
Protocol: as §4
Isolated mitochondria were monitored using a Seahorse XF96 extracellular flux analyzer at 32 °C. Mouse heart mitochondria, and mouse and rat liver mitochondria were plated into XF96 plates at 4 and 16–20 μg per well, respectively, in 220 mM mannitol, 70 mM sucrose, 10 mM KH2PO4, 5 mM MgCl2, 1 mM EGTA, 0.2 % fatty acid-free BSA, and 2 mM HEPES (pH 7.4 at 37 °C) with 10 mM glutamate and 10 mM malate and adhered by centrifugation (2000 × g, 20 min, 4 °C). The medium was supplemented with a further 5 mM glutamate and 5 mM malate and the mitochondria incubated for 15 min. Then two baseline readings were taken before the biguanides were added at IC50/5. Biguanides were allowed to accumulate for 15–20 min before respiration was […] by the addition of 4 mM ADP. Rotenone (2 μM) was added at the end of the experiment. Data from wells with failed port injections were excluded from the analyses. The RCR values (state III versus state IV respiration) were 3.4, 4.8, and 4.6 for mouse heart, rat liver, and mouse liver, respectively.

[2] = test system: acetyl-coA carboxylase (phospho-Ser79); assay: AMPK activation, western blot of phospho-acetyl-coA carboxylase in MDBK cells; assay type: cell-based, Bos taurus; conditions: for ACC, average normalised to control: Averages of experiments 1-3, 18 hours; for p-ACC: band intensity
Protocol: MDBK cells were seeded at 1 × 10^6 cells per 6 cm dish in DMEM containing 10 % FBS. […] After 18 h cells were harvested by a rapid lysis procedure: cells were rinsed with PBS, then lysed using ice-cold buffer containing 50 mM HEPES, 1 mM EDTA, 10 % glycerol, 50 mM NaF, 5 mM sodium pyrophosphate, 1 % Triton-X100, 1 mM dithiothreitol (DTT), and a protease inhibitor cocktail (Roche). The cell lysate was centrifuged at 14,000 × g for 20 min at 4 °C and the protein concentration of the supernatant determined by bicinchoninic acid assay. The lysate was analyzed using Novex 3–12 % bis-Tris gels run in 3-(N-morpholino)propanesulfonic acid (MOPS) buffer (20 μg of protein per lane) followed by transfer to low fluorescence polyvinylidene fluoride membranes by wet transfer. Primary rabbit antibodies for AMPK-β (57C12), AMPK-α (phospho-Thr172) (40H9), and acetyl-coA carboxylase (phospho-Ser79) (Cell Signaling Technology) were incubated overnight with the membrane (1:1000 dilution) in Odyssey blocking buffer at 4 °C. A fluorescent secondary antibody was used (IRDYE800CW from LI-COR Biosciences, 1:20,000 dilution) with a LI-COR Odyssey imaging system.

| logP [1] | SMILES | rotenone sensitive OCR after 6 hours of biguanide exposure, % control, average (143B cells) | rotenone sensitive OCR after 6 hours of biguanide exposure, average (143B cells) | inhibition of rotenone-sensitive respiration (in words) (143B cells) | rotenone sensitive OCR after 6 hours of biguanide exposure, % control, average (HepG2 cells) | rotenone sensitive OCR after 6 hours of biguanide exposure, average (HepG2 cells) | inhibition of rotenone-sensitive respiration (in words) (HepG2 cells) | rotenone sensitive OCR after ADP stimulation, % of control, average (mouse heart mitochondria) | rotenone sensitive OCR after ADP stimulation, average (mouse heart mitochondria) | rotenone sensitive OCR after ADP stimulation, % of control, individual replicates (mouse heart mitochondria) | rotenone sensitive OCR after ADP stimulation, individual replicates (mouse heart mitochondria) | rotenone sensitive OCR after ADP stimulation, % of control, average (mouse liver mitochondria) | rotenone sensitive OCR after ADP stimulation, average (mouse liver mitochondria) | rotenone sensitive OCR after ADP stimulation, % of control, individual replicates (mouse liver mitochondria) | rotenone sensitive OCR after ADP stimulation, individual replicates (mouse liver mitochondria) | ACC, average normalised to control [2] | p-ACC / AMPK beta ([2]; Experiment 1, 18 hours) | p-ACC / AMPK beta normalised to control ([2]; Experiment 1, 18 hours) | p-ACC ([2]; Experiment 1, 18 hours) | p-ACC / AMPK beta ([2]; Experiment 2, 18 hours) | other results |
| --- | --- | --- | --- | --- | --- | --- | --- | --- | --- | --- | --- | --- | --- | --- | --- | --- | --- | --- | --- | --- | --- |
| -0.734 | NC(N)=NC(N)=NCc1ccccc1 [compound 3, 2-benzyl-1-(diaminomethylidene)guanidine] | 3.11 % control | 3.64 | inhibit respiration | 1.26 % control | 1.29 | inhibit respiration | 28.02 % of control | 67.86 | 41.93 % of control and 30.59 % of control and 30.48 % of control and 24.44 % of control and 22.36 % of control and 21.02 % of control and 20.43 % of control and 32.91 % of control | 101.56 and 74.09 and 73.82 and 59.18 and 54.16 and 50.90 and 49.48 and 79.71 | 32.07 % of control | 11.13 | 34.06 % of control and 31.32 % of control and 34.05 % of control and 28.86 % of control | 11.82 (2×) and 10.87 and 10.01 | 12.79 | 2.45 | 12.63 | 1150 | 2.31 | P (partition coefficient) [1]: 0.184; p-ACC / AMPK beta normalised to control ([2]; Experiment 2, 18 hours): 14.32; p-ACC ([2]; Experiment 2, 18 hours): 699; p-ACC / AMPK beta ([2]; Experiment 3, 18 hours): 3.41; p-ACC / AMPK beta normalised to control ([2]; Experiment 3, 18 hours): 11.43; p-ACC ([2]; Experiment 3, 18 hours): 770 |
| 0.149 | NC(N)=NC(N)=NCCc1ccc(Cl)cc1 [compound 1, 2-[2-(4-chlorophenyl)ethyl]-1-(diaminomethylidene)guanidine] | 3.06 % control | 3.59 | inhibit respiration | 4.45 % control | 4.59 | inhibit respiration | 42.96 % of control | 104.05 | 59.58 % of control and 56.94 % of control and 47.63 % of control and 43.78 % of control and 42.25 % of control and 48.37 % of control and 28.35 % of control and 16.80 % of control | 144.30 and 137.90 and 115.35 and 106.02 and 102.33 and 117.15 and 68.67 and 40.69 | 43.22 % of control | 14.99 | 45.82 % of control and 40.66 % of control and 43.16 % of control | 15.90 and 14.11 and 14.98 | 9.49 | 1.85 | 9.53 | 848 | 2.03 | p-ACC / AMPK beta normalised to control ([2]; Experiment 2, 18 hours): 12.57; p-ACC ([2]; Experiment 2, 18 hours): 727; p-ACC / AMPK beta ([2]; Experiment 3, 18 hours): 1.89; p-ACC / AMPK beta normalised to control ([2]; Experiment 3, 18 hours): 6.35; p-ACC ([2]; Experiment 3, 18 hours): 483 |

| SMILES | logP [1] | rotenone sensitive OCR after 6 hours of biguanide exposure, % control, average (143B cells) | rotenone sensitive OCR after 6 hours of biguanide exposure, average (143B cells) | inhibition of rotenone-sensitive respiration (in words) (143B cells) | rotenone sensitive OCR after 6 hours of biguanide exposure, % control, average (HepG2 cells) | rotenone sensitive OCR after 6 hours of biguanide exposure, average (HepG2 cells) | inhibition of rotenone-sensitive respiration (in words) (HepG2 cells) | rotenone sensitive OCR after ADP stimulation, % of control, average (mouse heart mitochondria) | rotenone sensitive OCR after ADP stimulation, average (mouse heart mitochondria) | rotenone sensitive OCR after ADP stimulation, % of control, individual replicates (mouse heart mitochondria) | rotenone sensitive OCR after ADP stimulation, individual replicates (mouse heart mitochondria) | rotenone sensitive OCR after ADP stimulation, % of control, average (mouse liver mitochondria) | rotenone sensitive OCR after ADP stimulation, average (mouse liver mitochondria) | rotenone sensitive OCR after ADP stimulation, % of control, individual replicates (mouse liver mitochondria) | rotenone sensitive OCR after ADP stimulation, individual replicates (mouse liver mitochondria) | ACC, average normalised to control [2] | p-ACC / AMPK beta ([2]; Experiment 1, 18 hours) | p-ACC / AMPK beta normalised to control ([2]; Experiment 1, 18 hours) | p-ACC ([2]; Experiment 1, 18 hours) | p-ACC / AMPK beta ([2]; Experiment 2, 18 hours) | other results |
| --- | --- | --- | --- | --- | --- | --- | --- | --- | --- | --- | --- | --- | --- | --- | --- | --- | --- | --- | --- | --- | --- |
| N=C(N)NC(N)=Nc1ccccc1 [compound 2, phenyl biguanide] | -0.627 | 98.12 % control | 115.02 | do not | 91.28 % control | 94.14 | do not | 107.96 % of control | 261.48 | 135.56 % of control and 93.15 % of control and 89.18 % of control and 125.36 % of control and 159.10 % of control and 52.24 % of control and 102.54 % of control and 106.56 % of control | 328.33 and 225.59 and 215.99 and 303.61 and 385.34 and 126.52 and 248.35 and 258.08 | 78.67 % of control | 27.30 | 80.64 % of control and 78.05 % of control and 77.34 % of control | 27.98 and 27.08 and 26.83 | 1.20 | 0.25 | 1.30 | 118 | 0.22 | P (partition coefficient) [1]: 0.236; p-ACC / AMPK beta normalised to control ([2]; Experiment 2, 18 hours): 1.36; p-ACC ([2]; Experiment 2, 18 hours): 75.8; p-ACC / AMPK beta ([2]; Experiment 3, 18 hours): 0.28; p-ACC / AMPK beta normalised to control ([2]; Experiment 3, 18 hours): 0.93; p-ACC ([2]; Experiment 3, 18 hours): 59.9 |
